The source of these data is US20260144890A1, “ANTIBODY DRUG CONJUGATE COMPRISING NMT INHIBITOR CONJUGATED TO AN ANTIBODY” (MyricX Pharma Limited, priority 2024, published 2026).

SMILES strings stand for the structures.

What all share (format): cell-based
Assay [1] relates to gastric cancer organoid GA6815B. Kind of assay: Gastric cancer organoid viability (CTG 3D), GA6815B. Further details: AUC (area under curve): unit not given beside the values. The protocol:
(§1) Day −1: Patient derived gastric cancer organoids (PDXOs) are sheared to uniform sizes and the required number of organoids are combined 1:1 with 50% Matrigel to produce the right size of the organoids to perform the screen.
(§2) Day 0: Organoid seeding • 1. Collect organoids from each well by adding 20 μl 100× Dispase solution to each well from a 6-well plate, which contains 2 ml of organoid medium. • 2. Put the plates back in the incubator, 37° C. for 30 min. • 3. Collect organoids from all wells and pipet through a pre-wet 100 μm filter into a 50 ml plastic tube. • 4. Once all wells have been filtered over 100 μm filters, filter the flow though over a pre-wet 20 μm filter. • 5. […]
(§3) • 10. Place screening plates back into the incubator before adding compounds and day 0 reading. […] One is for day 0 reading (TO) and the other for reading at the end point.
(§4) Day 0: Compounds treatment and Day 0 baseline CTG (cell titre glo) reading • 11. […] For day 0 reading plate, add 40 μL of CTG 3D per well and read luminescent signal on Envision plate reader.
(§5) Day 6: Endpoint CTG reading. • 1. Read assay plates for luminescent CTG signal at the end of the assays: add 40 μL of CTG 3D per well by Multidrop dispenser, mix the contents for 5 min on the plate shaker, and incubate the plates for 30 min at room temperature in dark. Read luminescent signal on Envision plate reader. […]

For assay [2], the system named is gastric cancer organoid GA2109B. Kind of assay: Gastric cancer organoid viability (CTG 3D), GA2109B. Further details: unit not given beside the values. The protocol: as §1, §2, §3, §4, §5
In assay [3] the test system is gastric cancer organoid GA6833B. The experiment in a line: Gastric cancer organoid viability (CTG 3D), GA6833B. Details: unit not given beside the values. Here is the method:
as §1, §2, §3, §4, §5

In assay [4] the test system is gastric cancer organoid GA0091B. Kind of assay: Gastric cancer organoid viability (CTG 3D), GA0091B. Further details: AUC (area under curve): unit not given beside the values. Here is the method:
as §1, §2, §3, §4, §5

In assay [5] the test system is gastric cancer organoid GA6894B. Kind of assay: Gastric cancer organoid viability (CTG 3D), GA6894B. Details: AUC (area under curve): unit not given beside the values. The protocol: as §1, §2, §3, §4, §5
For assay [6], the system named is gastric cancer organoid GA0119B. The experiment in a line: Gastric cancer organoid viability (CTG 3D), GA0119B. Further details: AUC (area under curve): unit not given beside the values. Here is the method: as §1, §2, §3, §4, §5
Assay [7] has as its system gastric cancer organoid GA0098B. Kind of assay: Gastric cancer organoid viability (CTG 3D), GA0098B. Details: AUC (area under curve): unit not given beside the values. The protocol:
as §1, §2, §3, §4, §5

In assay [8] the test system is gastric cancer organoid GA3102B. Kind of assay: Gastric cancer organoid viability (CTG 3D), GA3102B. Details: unit not given beside the values. The protocol: as §1, §2, §3, §4, §5
The subject of assay [9] is gastric cancer organoid GA0087B. Kind of assay: Gastric cancer organoid viability (CTG 3D), GA0087B. Further details: AUC (area under curve): unit not given beside the values. Here is the method: as §1, §2, §3, §4, §5
Assay [10] has as its system gastric cancer organoid GA0060B. The experiment in a line: Gastric cancer organoid viability (CTG 3D), GA0060B. Further details: unit not given beside the values. The protocol: as §1, §2, §3, §4, §5
Assay [11] concerns gastric cancer organoid GA3055B. Kind of assay: Gastric cancer organoid viability (CTG 3D), GA3055B. Details: unit not given beside the values. Here is the method: as §1, §2, §3, §4, §5
Assay [12] relates to gastric cancer organoid GA6866B. Kind of assay: Gastric cancer organoid viability (CTG 3D), GA6866B. Details: unit not given beside the values. Here is the method: as §1, §2, §3, §4, §5
Assay [13] has as its system gastric cancer organoid GA2434B. Kind of assay: Gastric cancer organoid viability (CTG 3D), GA2434B. Details: unit not given beside the values. The protocol: as §1, §2, §3, §4, §5
The test system of assay [14] is gastric cancer organoid GA6877B. The experiment in a line: Gastric cancer organoid viability (CTG 3D), GA6877B. Further details: unit not given beside the values. The protocol: as §1, §2, §3, §4, §5
Assay [15] relates to gastric cancer organoid GA6891B. The experiment in a line: Gastric cancer organoid viability (CTG 3D), GA6891B. Details: AUC (area under curve): unit not given beside the values. Here is the method: as §1, §2, §3, §4, §5
Assay [16] deals with gastric cancer organoid GA0429B. Kind of assay: Gastric cancer organoid viability (CTG 3D), GA0429B. Further details: unit not given beside the values. Here is the method:
as §1, §2, §3, §4, §5

The term IC50 denotes the point on the concentration scale where inhibition reaches its midpoint. Regarding `CN[C@@H]1C[C@H]2O[C@@](C)([C@@H]1OC)n1c3ccccc3c3c4c(c5c6ccccc6n2c5c31)C(=O)NC4` [Staurosporine], the “AUC (area under curve)” value was found to be 194.3428 in [1]; 233.3136 in [2]; 158.1701 in [3]; 199.9 in assay [4]; 230.6577 in assay [5]; 212.2837 in assay [6]. Moreover, the “AUC (area under curve)” value in assay [7] is recorded as 239.6; in assay [8] it was 200.7667; in assay [9], 113.2; in [10], 85.1; in assay [11], 144.7132; in assay [12], 201.1356. Further, the “AUC (area under curve)” value was 226.6809 in [13], 175.472 in assay [14], 174.0868 in [15] and 170.8729 in assay [16]. Moreover, the IC50 in assay [1] is 15.8 nM; in assay [4], 22.2 nM; in assay [5] it was 8.5 nM; in assay [6] it was 8.9 nM; in assay [7], 22.1 nM; in assay [9], 2.9 nM. This molecule displayed an IC50 in assay [15] of 9 nM.
